Reference: ChEMBL document CHEMBL1201862, “PubChem BioAssay data set” (2004)
Active and inactive are the calls of the source.

What was measured:
[1] = biological target: T1, Sentrin-specific protease 8 (Homo sapiens, UniProt Q96LD8); test: SENP8 protease inhibitors, SAR follow-up, biochemical, luminescence (AID 504501); type: functional
T1 sequence (Q96LD8 whole entry): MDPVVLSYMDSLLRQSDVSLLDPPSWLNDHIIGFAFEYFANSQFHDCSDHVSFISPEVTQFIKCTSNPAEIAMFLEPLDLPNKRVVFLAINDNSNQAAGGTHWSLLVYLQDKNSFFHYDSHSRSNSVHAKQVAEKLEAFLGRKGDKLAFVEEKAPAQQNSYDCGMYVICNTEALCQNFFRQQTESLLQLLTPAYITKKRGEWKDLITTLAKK

Caspase-3 = biological target: T2, Caspase-3 (Homo sapiens, UniProt P42574); test: SAR Analysis of small molecule inhibitors of Sentrin-specific proteases (SENPs) using a Caspase-3 Selectivity assay. [Related pubchem assays (depositor defined):AID2540, AID2599, AID434973, AID489001]; type: functional
T2 sequence (P42574 whole entry): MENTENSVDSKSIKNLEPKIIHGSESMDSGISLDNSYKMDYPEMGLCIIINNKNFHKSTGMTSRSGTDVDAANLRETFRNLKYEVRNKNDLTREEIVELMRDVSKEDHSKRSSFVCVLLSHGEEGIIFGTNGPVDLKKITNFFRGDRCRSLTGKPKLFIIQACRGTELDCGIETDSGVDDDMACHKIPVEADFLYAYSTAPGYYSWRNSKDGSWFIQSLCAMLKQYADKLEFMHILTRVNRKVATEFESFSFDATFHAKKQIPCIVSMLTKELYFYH

[2] = biological target: T3, Sentrin-specific protease 7 (Homo sapiens, UniProt Q9BQF6); test: SENP7 protease inhibitors, SAR follow-up, biochemical, luminescence (AID 504497); type: functional
T3 sequence (Q9BQF6 whole entry): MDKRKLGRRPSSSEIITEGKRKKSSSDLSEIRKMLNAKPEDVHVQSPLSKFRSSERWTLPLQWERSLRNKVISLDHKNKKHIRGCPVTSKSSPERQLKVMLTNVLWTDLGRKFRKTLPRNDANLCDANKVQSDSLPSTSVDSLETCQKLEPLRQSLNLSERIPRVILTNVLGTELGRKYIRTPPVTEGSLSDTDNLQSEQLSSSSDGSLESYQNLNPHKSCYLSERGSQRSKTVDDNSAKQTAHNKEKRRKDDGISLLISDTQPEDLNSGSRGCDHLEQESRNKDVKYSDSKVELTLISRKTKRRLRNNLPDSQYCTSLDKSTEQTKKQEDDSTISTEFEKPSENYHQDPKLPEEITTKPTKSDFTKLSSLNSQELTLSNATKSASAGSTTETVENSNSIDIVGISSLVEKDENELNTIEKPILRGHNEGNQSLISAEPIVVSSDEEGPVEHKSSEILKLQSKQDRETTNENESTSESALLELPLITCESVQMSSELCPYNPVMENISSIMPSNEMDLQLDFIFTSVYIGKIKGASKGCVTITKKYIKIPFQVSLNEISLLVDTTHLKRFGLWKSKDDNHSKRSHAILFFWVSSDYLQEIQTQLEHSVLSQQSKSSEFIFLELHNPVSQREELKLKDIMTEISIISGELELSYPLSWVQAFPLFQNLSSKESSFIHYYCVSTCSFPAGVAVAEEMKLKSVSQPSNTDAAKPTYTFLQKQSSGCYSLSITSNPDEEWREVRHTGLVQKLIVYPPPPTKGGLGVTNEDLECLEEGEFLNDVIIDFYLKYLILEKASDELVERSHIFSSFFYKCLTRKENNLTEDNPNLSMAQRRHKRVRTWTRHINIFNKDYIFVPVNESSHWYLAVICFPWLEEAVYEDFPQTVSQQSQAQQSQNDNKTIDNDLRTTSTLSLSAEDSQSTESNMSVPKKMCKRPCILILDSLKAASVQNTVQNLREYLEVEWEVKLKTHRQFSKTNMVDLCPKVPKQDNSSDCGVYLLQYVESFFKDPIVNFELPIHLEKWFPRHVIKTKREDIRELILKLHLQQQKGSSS

[3] = biological target: T4, Sentrin-specific protease 6 (Homo sapiens, UniProt Q9GZR1); test: SAR Analysis of small molecule inhibitors of Sentrin-specific protease 6 (SENP6) using a Luminescent assay. [Related pubchem assays (depositor defined):AID2582, AID2599]; type: functional
T4 sequence (Q9GZR1 whole entry): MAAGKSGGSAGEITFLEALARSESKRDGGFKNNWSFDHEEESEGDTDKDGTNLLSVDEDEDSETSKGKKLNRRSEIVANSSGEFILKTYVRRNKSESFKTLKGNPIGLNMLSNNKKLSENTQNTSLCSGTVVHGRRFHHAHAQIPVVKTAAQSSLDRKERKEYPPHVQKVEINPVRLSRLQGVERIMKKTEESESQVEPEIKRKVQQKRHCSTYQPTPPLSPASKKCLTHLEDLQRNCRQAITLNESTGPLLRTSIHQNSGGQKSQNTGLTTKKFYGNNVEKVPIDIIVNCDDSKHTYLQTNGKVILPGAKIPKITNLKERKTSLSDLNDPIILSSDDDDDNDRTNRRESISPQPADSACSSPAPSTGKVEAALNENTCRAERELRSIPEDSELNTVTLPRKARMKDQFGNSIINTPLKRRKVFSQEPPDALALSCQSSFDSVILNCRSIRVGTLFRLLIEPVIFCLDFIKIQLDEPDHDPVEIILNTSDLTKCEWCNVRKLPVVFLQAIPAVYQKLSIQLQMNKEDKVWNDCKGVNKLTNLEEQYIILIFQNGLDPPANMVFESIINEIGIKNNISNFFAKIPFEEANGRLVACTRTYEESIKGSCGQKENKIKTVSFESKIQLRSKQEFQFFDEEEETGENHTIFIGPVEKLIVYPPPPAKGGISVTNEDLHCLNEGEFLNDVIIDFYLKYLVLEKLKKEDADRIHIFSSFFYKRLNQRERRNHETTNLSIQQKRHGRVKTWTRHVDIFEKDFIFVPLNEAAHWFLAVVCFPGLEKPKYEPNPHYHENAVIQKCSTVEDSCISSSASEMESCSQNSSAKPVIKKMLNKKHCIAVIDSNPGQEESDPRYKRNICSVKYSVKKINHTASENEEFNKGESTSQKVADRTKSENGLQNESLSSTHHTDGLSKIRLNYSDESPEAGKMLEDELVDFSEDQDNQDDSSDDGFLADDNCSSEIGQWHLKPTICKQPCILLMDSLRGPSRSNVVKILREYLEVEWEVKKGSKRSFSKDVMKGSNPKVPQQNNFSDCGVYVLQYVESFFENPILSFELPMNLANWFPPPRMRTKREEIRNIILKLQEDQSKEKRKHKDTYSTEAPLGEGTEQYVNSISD

Caspase-6 = Caspase-6 (Homo sapiens, UniProt P55212); test: human caspase-6 inhibitors, dose response, biochemical, VEID-R110 fluorescence, cherry-pick (AID 720632)
[4] = biological target: T5, C-C chemokine receptor type 6 (Homo sapiens, UniProt P51684); test: CCR6 receptor antagonists, dose response, cell-based, luminescent beta-arrestin readout (AID 504728); type: functional
T5 sequence (P51684 whole entry): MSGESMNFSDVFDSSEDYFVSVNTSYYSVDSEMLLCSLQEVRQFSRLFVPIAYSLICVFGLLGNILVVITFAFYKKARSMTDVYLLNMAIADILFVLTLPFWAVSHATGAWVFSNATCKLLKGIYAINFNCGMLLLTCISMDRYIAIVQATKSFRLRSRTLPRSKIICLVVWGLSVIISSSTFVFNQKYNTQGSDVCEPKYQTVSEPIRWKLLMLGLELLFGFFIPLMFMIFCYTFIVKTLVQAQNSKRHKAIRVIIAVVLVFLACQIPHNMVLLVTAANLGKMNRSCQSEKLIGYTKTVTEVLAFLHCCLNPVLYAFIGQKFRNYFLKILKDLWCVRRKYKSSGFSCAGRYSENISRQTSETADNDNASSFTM

Protein RecA = biological target: T6, Protein RecA (Mycobacterium tuberculosis, UniProt P9WHJ3); test: Fluorescence Cell-Free Homogeneous Dose Retest to Identify Inhibitors of RecA-Intein Splicing Activity. [Related pubchem assays (depositor defined):AID2097, AID2223, AID489010, AID492950]; type: functional
T6 sequence (P9WHJ3 whole entry): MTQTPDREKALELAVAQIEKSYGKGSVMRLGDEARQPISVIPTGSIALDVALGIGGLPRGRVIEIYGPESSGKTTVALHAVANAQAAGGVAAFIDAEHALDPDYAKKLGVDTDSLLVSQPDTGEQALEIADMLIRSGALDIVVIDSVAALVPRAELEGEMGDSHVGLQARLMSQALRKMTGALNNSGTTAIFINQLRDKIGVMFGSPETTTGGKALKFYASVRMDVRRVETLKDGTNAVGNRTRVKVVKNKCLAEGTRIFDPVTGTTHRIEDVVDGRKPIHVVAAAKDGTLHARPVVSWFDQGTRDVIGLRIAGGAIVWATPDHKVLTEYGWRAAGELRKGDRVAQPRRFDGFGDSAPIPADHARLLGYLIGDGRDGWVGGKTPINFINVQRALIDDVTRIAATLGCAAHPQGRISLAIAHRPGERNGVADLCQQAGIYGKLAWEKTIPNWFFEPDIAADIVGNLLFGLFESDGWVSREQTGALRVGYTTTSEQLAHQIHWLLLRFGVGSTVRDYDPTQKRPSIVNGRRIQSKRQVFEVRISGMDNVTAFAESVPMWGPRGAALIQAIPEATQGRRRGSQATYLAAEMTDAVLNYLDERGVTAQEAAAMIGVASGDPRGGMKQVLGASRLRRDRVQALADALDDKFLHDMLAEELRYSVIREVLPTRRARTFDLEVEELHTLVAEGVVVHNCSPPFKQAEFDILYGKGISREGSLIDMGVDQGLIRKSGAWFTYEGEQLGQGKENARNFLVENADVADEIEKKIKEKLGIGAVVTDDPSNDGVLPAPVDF

[5] = biological target: ATP-dependent molecular chaperone HSP82 (Candida albicans (strain WO-1) (Yeast), UniProt C4YTQ8); test: loss of DOC-induced GRE-beta-galactosidase reporter signal, dose response, Hsp90 inhibitor project, S. cerevisiae, luminescence (AID 2400); type: functional, cell-based;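 also: beta-galactosidase luminescence from glucocorticoid response element reporter as proxy for Hsp90 function; inhibitor potency where signal loss means Hsp90 inhibition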
[6] = biological target: T7, Replicative DNA helicase DnaB (Mycobacterium tuberculosis, UniProt P9WMR3); test: DnaB intein splicing inhibitors, dose response, biochemical, cell-free fluorescence (AID 449749); type: functional
T7 sequence (P9WMR3 whole entry): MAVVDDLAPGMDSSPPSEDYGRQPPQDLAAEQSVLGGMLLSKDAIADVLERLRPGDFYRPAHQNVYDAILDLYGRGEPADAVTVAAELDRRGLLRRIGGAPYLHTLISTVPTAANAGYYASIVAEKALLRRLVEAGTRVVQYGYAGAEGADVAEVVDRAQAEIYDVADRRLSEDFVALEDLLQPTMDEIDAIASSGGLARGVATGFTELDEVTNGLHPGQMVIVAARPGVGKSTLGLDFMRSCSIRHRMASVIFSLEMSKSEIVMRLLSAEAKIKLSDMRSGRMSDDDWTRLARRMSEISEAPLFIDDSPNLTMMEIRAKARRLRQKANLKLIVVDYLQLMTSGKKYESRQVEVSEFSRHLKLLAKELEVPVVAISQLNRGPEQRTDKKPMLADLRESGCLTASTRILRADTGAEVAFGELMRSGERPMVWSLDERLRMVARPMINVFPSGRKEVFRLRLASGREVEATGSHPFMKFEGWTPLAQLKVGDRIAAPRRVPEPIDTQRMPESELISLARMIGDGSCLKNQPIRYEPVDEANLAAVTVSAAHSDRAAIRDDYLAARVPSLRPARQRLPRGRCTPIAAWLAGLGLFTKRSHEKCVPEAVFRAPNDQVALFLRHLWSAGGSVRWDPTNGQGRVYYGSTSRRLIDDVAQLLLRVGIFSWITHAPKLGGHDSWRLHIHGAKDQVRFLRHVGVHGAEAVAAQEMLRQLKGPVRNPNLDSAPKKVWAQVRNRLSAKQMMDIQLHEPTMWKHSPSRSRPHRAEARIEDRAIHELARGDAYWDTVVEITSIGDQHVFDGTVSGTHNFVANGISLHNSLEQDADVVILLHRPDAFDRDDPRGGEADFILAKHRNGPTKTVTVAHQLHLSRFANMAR

[7] = Counterscreen for AddAB inhibitors: absorbance-based bacterial cell-based high throughput dose response assay for inhibitors of bacterial viability. [Related pubchem assays (depositor defined):AID435030, AID449728, AID449731, AID488942, AID488955, AID488956]; type: functional
Exodeoxyribonuclease V = Exodeoxyribonuclease V (Escherichia coli (strain K12), UniProt P04993+P07648+P08394); test: E. coli RecBCD inhibitors, dose response, counter-screen for AddAB inhibitor project, absorbance, V66 E. coli, mutant T4 phage (AID 492957); type: functional, cell-based, Escherichia coli str. K-12 substr. MG1655
[8] = NIH-3T3 fibroblast cytotoxicity, dose response, cytotoxicity control, cell-based, fluorescence, Alamar Blue, secondary assay (AID 2327); type: functional;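 also: NIH-3T3 mouse fibroblasts cultured with fluconazole at 8 µg/mL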
[9] = biological target: Serine/threonine-protein phosphatase (Candida dubliniensis (strain CD36 / CBS 7987 / NCPF 3949 / NRRLY-17841) (Yeast), UniProt B9W6M3); test: calcineurin pathway inhibitors in yeast reporter, dose response, S. cerevisiae, CDRE-lacZ, luminescence, secondary (AID 2388); type: functional, cell-based;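 also: yeast reporter cells carrying a calcineurin-responsive lacZ construct stimulated with calcium chloride; luminescent beta-galactosidase reporter signal in whole cells rather than isolated phosphatase activity; potency for inhibition where a drop in reporter signal means calcineurin blockade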
Beta-galactosidase = Beta-galactosidase (Escherichia coli, UniProt Q8VNN2); test: beta-galactosidase enzyme inhibitors and activators, dose response, artefact control for CCR6 antagonist project, biochemical, E. coli enzyme, set 3 (AID 504712); type: functional
[10] = C. albicans growth with fluconazole, confirmation, fluorescence, retest (AID 2467); type: functional, cell-based

Chain of Serine/threonine-protein phosphatase (B9W6M3 whole entry): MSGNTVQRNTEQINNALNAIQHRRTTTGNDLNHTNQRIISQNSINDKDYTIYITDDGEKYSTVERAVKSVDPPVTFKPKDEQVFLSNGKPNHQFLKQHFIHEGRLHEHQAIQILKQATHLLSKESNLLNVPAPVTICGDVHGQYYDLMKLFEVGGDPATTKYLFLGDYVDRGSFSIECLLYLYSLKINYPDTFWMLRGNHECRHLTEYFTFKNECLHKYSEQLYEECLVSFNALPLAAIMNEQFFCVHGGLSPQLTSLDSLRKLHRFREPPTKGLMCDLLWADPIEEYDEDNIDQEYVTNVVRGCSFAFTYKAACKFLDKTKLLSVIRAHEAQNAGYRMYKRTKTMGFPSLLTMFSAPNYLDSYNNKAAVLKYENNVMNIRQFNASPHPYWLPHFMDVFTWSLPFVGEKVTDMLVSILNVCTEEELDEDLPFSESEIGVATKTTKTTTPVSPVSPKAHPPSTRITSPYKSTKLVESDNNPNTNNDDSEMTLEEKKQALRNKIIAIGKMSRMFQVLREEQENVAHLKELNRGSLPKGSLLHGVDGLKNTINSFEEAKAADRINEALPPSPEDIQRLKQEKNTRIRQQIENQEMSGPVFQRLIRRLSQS
Chain of ATP-dependent molecular chaperone HSP82 (C4YTQ8 whole entry): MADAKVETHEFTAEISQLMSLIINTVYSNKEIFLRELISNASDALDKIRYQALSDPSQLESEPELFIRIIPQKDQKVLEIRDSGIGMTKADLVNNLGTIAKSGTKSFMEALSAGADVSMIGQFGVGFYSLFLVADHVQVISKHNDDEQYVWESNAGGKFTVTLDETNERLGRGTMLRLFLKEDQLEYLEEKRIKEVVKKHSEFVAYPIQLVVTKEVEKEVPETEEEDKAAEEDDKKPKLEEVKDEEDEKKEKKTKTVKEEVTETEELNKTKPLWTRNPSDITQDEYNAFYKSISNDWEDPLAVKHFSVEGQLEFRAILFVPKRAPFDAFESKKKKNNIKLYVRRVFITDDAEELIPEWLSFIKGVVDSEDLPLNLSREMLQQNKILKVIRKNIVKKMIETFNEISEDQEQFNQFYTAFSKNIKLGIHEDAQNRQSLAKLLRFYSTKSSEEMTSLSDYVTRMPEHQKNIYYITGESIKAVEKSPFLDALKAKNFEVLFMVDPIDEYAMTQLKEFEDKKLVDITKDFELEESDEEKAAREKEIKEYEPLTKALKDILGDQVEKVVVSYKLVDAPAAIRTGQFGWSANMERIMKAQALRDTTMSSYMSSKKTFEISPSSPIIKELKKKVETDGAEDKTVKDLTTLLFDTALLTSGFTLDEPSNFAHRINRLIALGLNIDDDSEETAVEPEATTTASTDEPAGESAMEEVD
Chain of Exodeoxyribonuclease V (P04993 whole entry): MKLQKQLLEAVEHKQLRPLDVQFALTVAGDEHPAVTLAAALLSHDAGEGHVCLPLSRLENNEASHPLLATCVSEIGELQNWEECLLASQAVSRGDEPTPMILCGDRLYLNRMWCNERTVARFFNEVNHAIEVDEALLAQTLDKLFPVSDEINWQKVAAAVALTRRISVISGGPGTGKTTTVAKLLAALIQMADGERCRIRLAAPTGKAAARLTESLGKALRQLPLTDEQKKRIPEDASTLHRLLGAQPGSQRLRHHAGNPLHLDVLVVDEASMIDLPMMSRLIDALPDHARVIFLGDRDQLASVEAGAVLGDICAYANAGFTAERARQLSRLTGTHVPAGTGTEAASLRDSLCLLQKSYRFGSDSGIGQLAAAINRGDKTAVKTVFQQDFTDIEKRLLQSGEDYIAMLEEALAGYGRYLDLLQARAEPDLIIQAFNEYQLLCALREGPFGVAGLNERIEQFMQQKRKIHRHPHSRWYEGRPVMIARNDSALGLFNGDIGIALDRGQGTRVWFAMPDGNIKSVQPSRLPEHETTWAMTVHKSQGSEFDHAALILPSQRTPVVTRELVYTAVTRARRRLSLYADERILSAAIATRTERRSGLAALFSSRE
Chain of Exodeoxyribonuclease V (P07648 whole entry): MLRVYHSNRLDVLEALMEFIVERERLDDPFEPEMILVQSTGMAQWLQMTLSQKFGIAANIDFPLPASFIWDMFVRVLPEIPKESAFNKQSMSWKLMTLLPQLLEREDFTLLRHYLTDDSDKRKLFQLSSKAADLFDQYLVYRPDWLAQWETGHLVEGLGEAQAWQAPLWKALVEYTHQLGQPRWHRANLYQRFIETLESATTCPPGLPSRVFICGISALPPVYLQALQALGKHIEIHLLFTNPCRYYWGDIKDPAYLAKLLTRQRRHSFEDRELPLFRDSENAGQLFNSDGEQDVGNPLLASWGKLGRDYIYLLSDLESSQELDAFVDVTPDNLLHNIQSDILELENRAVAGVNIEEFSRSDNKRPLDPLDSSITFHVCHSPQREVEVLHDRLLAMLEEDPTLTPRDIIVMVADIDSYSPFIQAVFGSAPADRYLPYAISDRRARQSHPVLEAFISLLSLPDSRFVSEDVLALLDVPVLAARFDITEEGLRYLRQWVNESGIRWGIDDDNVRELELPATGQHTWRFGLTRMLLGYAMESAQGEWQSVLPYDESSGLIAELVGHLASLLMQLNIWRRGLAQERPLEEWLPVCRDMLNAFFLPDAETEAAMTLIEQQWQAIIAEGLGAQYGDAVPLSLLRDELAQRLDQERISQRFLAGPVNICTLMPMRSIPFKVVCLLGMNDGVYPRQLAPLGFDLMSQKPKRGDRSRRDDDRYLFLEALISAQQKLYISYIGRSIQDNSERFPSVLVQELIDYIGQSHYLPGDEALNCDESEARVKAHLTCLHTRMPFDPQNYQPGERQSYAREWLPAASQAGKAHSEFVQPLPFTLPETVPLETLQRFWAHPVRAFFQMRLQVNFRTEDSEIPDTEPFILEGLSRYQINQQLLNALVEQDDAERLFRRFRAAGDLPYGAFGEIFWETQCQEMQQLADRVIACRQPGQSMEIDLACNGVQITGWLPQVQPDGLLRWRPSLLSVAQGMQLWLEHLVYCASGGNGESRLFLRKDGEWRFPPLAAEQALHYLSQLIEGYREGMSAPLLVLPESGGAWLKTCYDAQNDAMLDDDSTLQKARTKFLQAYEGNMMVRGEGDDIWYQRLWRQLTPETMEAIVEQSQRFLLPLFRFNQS
Chain of Exodeoxyribonuclease V (P08394 whole entry): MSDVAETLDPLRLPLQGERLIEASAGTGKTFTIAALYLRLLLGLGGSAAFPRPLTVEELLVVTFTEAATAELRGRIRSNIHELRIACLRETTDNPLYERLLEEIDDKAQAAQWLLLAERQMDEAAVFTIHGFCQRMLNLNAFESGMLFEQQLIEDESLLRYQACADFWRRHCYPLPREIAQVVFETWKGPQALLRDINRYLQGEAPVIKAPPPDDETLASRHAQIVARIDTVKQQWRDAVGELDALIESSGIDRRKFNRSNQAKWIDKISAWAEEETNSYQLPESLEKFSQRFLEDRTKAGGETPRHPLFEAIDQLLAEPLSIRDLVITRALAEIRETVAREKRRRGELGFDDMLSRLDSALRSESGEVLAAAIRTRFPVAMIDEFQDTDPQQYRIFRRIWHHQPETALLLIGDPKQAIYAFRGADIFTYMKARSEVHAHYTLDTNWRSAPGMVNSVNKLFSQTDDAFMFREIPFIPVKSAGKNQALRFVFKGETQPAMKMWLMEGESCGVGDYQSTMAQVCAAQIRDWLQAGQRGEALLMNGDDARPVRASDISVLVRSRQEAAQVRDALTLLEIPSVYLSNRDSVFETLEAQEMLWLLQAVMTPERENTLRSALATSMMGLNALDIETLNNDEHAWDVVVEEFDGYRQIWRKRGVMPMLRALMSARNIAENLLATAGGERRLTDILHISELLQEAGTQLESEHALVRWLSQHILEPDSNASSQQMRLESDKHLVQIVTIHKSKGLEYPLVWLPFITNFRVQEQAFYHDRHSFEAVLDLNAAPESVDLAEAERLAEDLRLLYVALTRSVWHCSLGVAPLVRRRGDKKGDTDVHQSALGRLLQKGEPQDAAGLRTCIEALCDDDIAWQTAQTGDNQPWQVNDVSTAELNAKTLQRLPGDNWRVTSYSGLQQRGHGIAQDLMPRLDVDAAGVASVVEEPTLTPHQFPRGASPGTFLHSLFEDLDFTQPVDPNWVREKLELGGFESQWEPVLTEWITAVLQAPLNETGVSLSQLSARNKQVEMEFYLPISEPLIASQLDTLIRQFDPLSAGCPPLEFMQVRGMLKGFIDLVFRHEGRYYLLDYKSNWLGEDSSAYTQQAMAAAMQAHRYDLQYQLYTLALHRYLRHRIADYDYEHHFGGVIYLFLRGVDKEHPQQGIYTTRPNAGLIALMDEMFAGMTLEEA
Chain of Caspase-6 (P55212 24-179 limits assumed): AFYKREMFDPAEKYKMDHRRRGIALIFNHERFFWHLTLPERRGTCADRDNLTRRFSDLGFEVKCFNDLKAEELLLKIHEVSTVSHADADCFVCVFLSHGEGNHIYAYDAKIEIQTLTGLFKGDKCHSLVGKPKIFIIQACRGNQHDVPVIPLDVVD
Chain of Caspase-6 (P55212 194-293 limits assumed): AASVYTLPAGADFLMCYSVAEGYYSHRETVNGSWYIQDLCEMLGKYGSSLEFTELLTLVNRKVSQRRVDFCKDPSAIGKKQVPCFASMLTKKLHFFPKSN

SMILES	IC50 [1]	IC50 (Caspase-3)	IC50 [2]	IC50 [3]	AC50 (Caspase-6)	IC50 [4]	EC50 (Protein RecA)	EC50 [5]	AC50 [6]	IC50 [7]	IC50 (Exodeoxyribonuclease V)	EC50 [8]	EC50 [9]	IC50 (Beta-galactosidase)	EC50 [10]
COc1cc(OC)cc(-c2noc(/C=C/c3ccccc3Cl)n2)c1	> 99 µM (inactive)	> 99 µM (inactive)	> 99 µM (inactive)	> 99 µM (inactive)	–	–	–	–	–	–	–	–	–	–	–
O=[N+]([O-])c1cc(O)c2ncccc2c1	–	–	–	–	17.3 µM (active)	> 66.6 µM (inactive)	4.6 µM (active)	18.5 µM (active)	6.95 µM (active)	41.5 µM (inactive)	62.3 µM (inactive)	42.1 µM (active)	> 180 µM (inactive)	> 66.6 µM (inactive)	0.706 µM (active)
CCN=C(S)NNC(=O)c1cc(-c2cc(C)ccc2C)nc2ccccc12	–	–	–	–	–	–	–	> 150 µM (inactive)	–	–	–	129 µM (active)	> 180 µM (inactive)	–	0.296 µM (active)
O=C(Nc1nc2ccc(Cl)cc2s1)C1CCCCC1	> 99 µM (inactive)	> 99 µM (inactive)	> 99 µM (inactive)	> 99 µM (inactive)	–	–	–	–	–	–	–	–	–	–	–
